Experiments:
MKNK1 [1] = target: T1, MKNK1 (Homo sapiens, UniProt Q9BUB5, T385D); test: MKNK1 kinase assay (MKNK1 TR-FRET assay); format: biochemical; settings: 10 μM ATP, 15 min preincubation
T1 construct: GST (N); purchased Carna Biosciences 02-145; host or cells: insect cells (baculovirus expression system)

MKNK1 [2] = target: T1, MKNK1; test: MKNK1 kinase high ATP assay (TR-FRET-based); format: biochemical; settings: 2 mM ATP, 15 min preincubation
How it was run: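 TR-FRET read-out (anti-phospho-S6 Ser236 antibody, Eu/XL665) of biotin-peptide phosphorylation (0.06 μM) at high ATP (2 mM final). Enzyme was GST-MKNK1 full length, T344D, pre-bound to compound for 15 min before a 30 min reaction at 22 °C, pH 7.5. Inhibition scaled between no-inhibitor (0%) and no-enzyme (100%) wells.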

T1 sequence (Q9BUB5 1-424 isoform Q9BUB5-2 T344D): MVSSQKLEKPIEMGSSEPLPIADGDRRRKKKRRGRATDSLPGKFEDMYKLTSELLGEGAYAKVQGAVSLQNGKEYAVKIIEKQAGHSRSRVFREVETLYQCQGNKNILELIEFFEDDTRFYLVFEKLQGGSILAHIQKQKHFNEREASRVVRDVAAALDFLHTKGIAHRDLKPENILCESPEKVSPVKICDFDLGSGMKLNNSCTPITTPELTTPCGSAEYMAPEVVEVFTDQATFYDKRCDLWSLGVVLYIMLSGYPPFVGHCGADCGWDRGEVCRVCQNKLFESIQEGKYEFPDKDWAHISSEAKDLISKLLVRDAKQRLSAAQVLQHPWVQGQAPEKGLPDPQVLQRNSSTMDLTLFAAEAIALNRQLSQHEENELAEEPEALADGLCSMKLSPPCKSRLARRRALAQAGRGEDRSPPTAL

SMILES	IC50 (MKNK1 [1]; Table 1a)	IC50 (MKNK1 [2]; Table 2a)	IC50 (MKNK1 [1]; Table 1b)	IC50 (MKNK1 [2]; Table 2b)	IC50 (MKNK1 [1]; Table 1c)	IC50 (MKNK1 [2]; Table 2c)
CC(C)(C)CC(=O)N1CCC[C@H]1CCOc1ccc2ncc(-c3cc4ccccc4o3)n2n1 [Example I-6, 1-[(2S)-2-(2-{[3-(1-Benzofuran-2-yl)imidazo[1,2-b]pyridazin-6-yl]oxy}ethyl)-pyrrolidin-1-yl]-3,3-dimethylbutan-1-one]	3.4 nM	9.2 nM	–	–	–	–
C[C@H](N)COc1ccc2ncc(-c3cc4c(N5CCOCC5)cccc4o3)n2n1 [II-2, (2S)-1-({3-[4-(Morpholin-4-yl)-1-benzofuran-2-yl]imidazo[1,2-b]pyridazin-6-yl}oxy)propan-2-amine]	–	–	16 nM	36 nM	–	–
CCN(CCOC(C)(C)C)c1nccc2oc(-c3cnc4ccc(OC[C@H]5CCC(=O)N5)nn34)cc12 [III-80, (5R)-5-{[(3-{4-[(2-tert-Butoxyethyl)(ethyl)amino]furo[3,2-c]pyridin-2-yl}imidazo[1,2-b]pyridazin-6-yl)oxy]methyl}pyrrolidin-2-one]	–	–	–	–	0.4 nM	0.2 nM
N[C@H]1C[C@H](Oc2ccc3ncc(-c4cc5c(N6CCN(c7ccccc7)CC6)cccc5o4)n3n2)C1 [II-16, trans-3-({3-[4-(4-Phenylpiperazin-1-yl)-1-benzofuran-2-yl]imidazo[1,2-b]-pyridazin-6-yl}oxy)cyclobutanamine]	–	–	13 nM	15 nM	–	–
CCN(CCOC(C)(C)C)c1nccc2oc(-c3cnc4ccc(O[C@H]5C[C@H](N)C5)nn34)cc12 [III-108, 2-{6-[(trans-3-Aminocyclobutyl)oxy]imidazo[1,2-b]pyridazin-3-yl}-N-(2-tert-butoxyethyl)-N-ethylfuro[3,2-c]pyridin-4-amine]	–	–	–	–	1.9 nM	0.5 nM
O=C(c1cccs1)N1CCC[C@H]1CCOc1ccc2ncc(-c3cc4ccccc4o3)n2n1 [Example I-43, [(2S)-2-(2-{[3-(1-Benzofuran-2-yl)imidazo[1,2-b]pyridazin-6-yl]oxy}ethyl)pyrrolidin-1-yl](thiophen-2-yl)methanone]	1 nM	1.3 nM	–	–	–	–
C[C@@H]1CN(c2cccc3oc(-c4cnc5ccc(OC[C@@H](C)N)nn45)cc23)CCO1 [II-69, (2R)-1-[(3-{4-[(2R)-2-methylmorpholin-4-yl]-1-benzofuran-2-yl}imidazo[1,2-b]pyridazin-6-yl)oxy]propan-2-amine]	–	–	29.4 nM	34.8 nM	–	–
C[C@@H]1CN(c2nccc3oc(-c4cnc5ccc(O[C@H]6C[C@H](N)C6)nn45)cc23)CCO1 [III-122, trans-3-[(3-{4-[(2R)-2-methylmorpholin-4-yl]furo[3,2-c]pyridin-2-yl}imidazo[1,2-b]pyridazin-6-yl)oxy]cyclobutanamine]	–	–	–	–	12.3 nM	13 nM
CC1(C)CN(c2cccc3oc(-c4cnc5ccc(OC[C@@H]6CCC(=O)N6)nn45)cc23)CCO1 [II-63, (5S)-5-[({3-[4-(2,2-dimethylmorpholin-4-yl)-1-benzofuran-2-yl]imidazo[1,2-b]pyridazin-6-yl}oxy)methyl]pyrrolidin-2-one]	–	–	15.2 nM	39.5 nM	–	–
CC(C)(C)CC(=O)NCCOc1ccc2ncc(-c3cc4ccccc4o3)n2n1 [Example I-17, N-(2-{[3-(1-Benzofuran-2-yl)imidazo[1,2-b]pyridazin-6-yl]oxy}ethyl)-3,3-dimethylbutanamide]	4.6 nM	13.7 nM	–	–	–	–
CS(=O)(=O)CCCOc1ccc2ncc(-c3cc4c(N5CCN(c6ccccc6)CC5)nccc4o3)n2n1 [III-56, 6-[3-(Methylsulfonyl)propoxy]-3-[4-(4-phenylpiperazin-1-yl)furo[3,2-c]pyridin-2-yl]imidazo[1,2-b]pyridazine]	–	–	–	–	20.8 nM	16.9 nM
COc1cccc2oc(-c3cnc4ccc(OC[C@H]5CN(C(=O)C(C)(C)C)CCO5)nn34)cc12 [Example I-21, 1-[(2R)-2-({[3-(4-Methoxy-1-benzofuran-2-yl)imidazo[1,2-b]pyridazin-6-yl]-oxy}methyl)morpholin-4-yl]-2,2-dimethylpropan-1-one]	6.6 nM	17.7 nM	–	–	–	–
